# Assay results from ChEMBL document CHEMBL1158917, “Elabunin, a New Cytotoxic Triterpene from an East African Medicinal Plant, Elaeodendron buchananii” (1990).
# Test system: L1210
# Assay: Cytotoxicity against mouse L1210 cells
# Format: functional
# Details: read-out: ED50 (the source's name)
compound,measurement,value
C=C(CCC=C(C)C)[C@H]1[C@H](O)C[C@]2(C)[C@@H]1CC[C@@H]1[C@@]3(C)CCC(=O)C(C)(C)[C@@H]3CC[C@]12C [ELABUNIN],EC50,1 µg/mL
